EP4782445A1, “CDK KINASE INHIBITOR AND USE THEREOF” (Abbisko Therapeutics Co., Ltd., priority 2023, dated 2025)

Experiments:
[1] = target: T1, CDK4/cyclin D3 (Homo sapiens, UniProt P11802); experiment: In vitro biochemical kinase activity assay for CDK4/cyclin D3 (HTRF)
T1 construct: purchased Carna
Description: II. In Vitro Biochemical Kinase Activity Assay for CDK4/Cyclin D3
The inhibitory effects of the compounds of the present invention on CDK4/cyclin D3 kinase activity were determined using an HTRF assay. The experimental process was as follows: • 1. The kinase reaction was carried out in a 384-well plate. 4.9 nM CDK4/cyclin D3 (Carna), 1 mM (or 80 µM) ATP, and 0.3 µM biotin-labeled substrate protein Rb-biotin (Cisbio) were incubated at 30°C for 90 min in a buffer system composed of 50 mM MgCl2, 1 mM DTT, and basal kinase buffer (Cisbio). • 2. The detection solution (Cisbio, containing reagents that specifically recognize phosphorylated Rb and Rb-biotin proteins, respectively) was added. The plate was then sealed with a film (to protect from light and volatilization) and incubated at 25°C for 60 min. • 3. The plate was transferred to an Envision plate reader to detect FRET signals. (The 665/615 ratio was calculated by reading the emission at 665 nm and 615 nM, respectively.) • 4. The IC50 values were determined by analyzing the inhibition at varying compound concentrations using Model 205 in the XLfit software.

[2] = target: T2, CDK6/cyclin D3 (Homo sapiens, UniProt Q00534); experiment: In vitro biochemical kinase activity assay for CDK6/cyclin D3 (HTRF)
T2 construct: purchased Carna
Description: III. In Vitro Biochemical Kinase Activity Assay for CDK6/Cyclin D3
The inhibitory effects of the compounds of the present invention on CDK6/cyclin D3 kinase activity were determined using an HTRF assay. The experimental process was as follows: 1. The kinase reaction was carried out in a 384-well plate. 0.02 nM CDK6/cyclin D3 (Carna), 1 mM (or 100 µM) ATP, and 0.3 µM biotin-labeled substrate protein Rb-biotin (Cisbio) were incubated at 30°C for 60 min in a buffer system composed of 5 mM MgCl2, 1 mM DTT, and basal kinase buffer (Cisbio). 2. The detection solution (Cisbio, containing reagents that specifically recognize phosphorylated Rb and Rb-biotin proteins, respectively) was added. The plate was then sealed with a film (to protect from light and volatilization) and incubated at 25°C for 60 min. 3. The plate was transferred to an Envision plate reader to detect FRET signals. (The 665/615 ratio was calculated by reading the emission at 665 nm and 615 nM, respectively.) 4. The IC50 values were determined by analyzing the inhibition at varying compound concentrations using Model 205 in the XLfit software.

[3] = data marked with *: 1 mM ATP in Step 1

T2 sequence (Q00534 whole entry): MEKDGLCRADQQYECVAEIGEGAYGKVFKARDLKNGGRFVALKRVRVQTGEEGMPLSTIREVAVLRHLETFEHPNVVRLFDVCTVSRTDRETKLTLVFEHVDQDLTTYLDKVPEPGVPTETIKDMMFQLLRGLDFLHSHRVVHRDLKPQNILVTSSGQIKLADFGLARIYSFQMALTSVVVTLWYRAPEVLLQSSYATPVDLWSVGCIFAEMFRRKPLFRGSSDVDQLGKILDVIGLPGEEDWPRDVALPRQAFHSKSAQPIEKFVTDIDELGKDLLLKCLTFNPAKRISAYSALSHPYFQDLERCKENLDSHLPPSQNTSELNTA
T2 sequence (P30281 whole entry partner): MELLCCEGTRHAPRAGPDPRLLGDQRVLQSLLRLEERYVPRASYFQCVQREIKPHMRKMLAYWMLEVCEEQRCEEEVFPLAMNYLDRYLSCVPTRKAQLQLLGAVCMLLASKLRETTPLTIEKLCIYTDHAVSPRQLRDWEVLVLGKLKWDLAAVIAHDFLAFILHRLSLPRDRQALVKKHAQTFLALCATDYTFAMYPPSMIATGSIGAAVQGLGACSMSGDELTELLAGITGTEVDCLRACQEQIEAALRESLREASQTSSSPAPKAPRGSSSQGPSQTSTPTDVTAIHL
T1 sequence (P11802 whole entry): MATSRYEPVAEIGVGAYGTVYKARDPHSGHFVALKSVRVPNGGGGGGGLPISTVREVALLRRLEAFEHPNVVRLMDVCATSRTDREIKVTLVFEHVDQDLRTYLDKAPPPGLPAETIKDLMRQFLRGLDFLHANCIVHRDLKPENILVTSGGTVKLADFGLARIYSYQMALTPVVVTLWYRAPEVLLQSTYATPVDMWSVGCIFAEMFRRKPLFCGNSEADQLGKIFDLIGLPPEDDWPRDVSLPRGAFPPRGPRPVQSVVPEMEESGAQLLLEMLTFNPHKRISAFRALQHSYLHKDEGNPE
T1 sequence (P30281 whole entry partner): as the sequence (P30281 whole entry partner) above

SMILES | IC50 [1, 3] [nM] | IC50 [2, 3] [nM] | IC50 ([1]; unmarked data: 80 µM ATP in Step 1) [nM] | IC50 ([2]; unmarked data: 100 µM ATP in Step 1) [nM]
CC(C)n1c(C#Cc2nc(Nc3ccc(N4CC5(CN(C)C5)C4)cn3)ncc2Cl)cnc1CN1CCC[C@H](O)C1 [Example 115, (S)-1-((5-((5-chloro-2-((5-(6-methyl-2,6-diazaspiro[3.3]heptan-2-yl)pyridin-2-yl)amino)pyrimidin-4-yl)ethynyl)-1-isopropyl-1H-imidazol-2-yl)methyl)piperidin-3-ol] | 2.28 | 17.9 | – | –
CC(C)n1c(C#Cc2nc(N[C@@H]3CCOC[C@H]3O)ncc2Cl)cnc1CN1CCC[C@@H](O)C1 [Example 78, (R)-1-((5-((5-chloro-2-(((3 S,4R)-3-hydroxytetrahydro-2H-pyran-4-yl)amino)pyrimidin-4-yl)ethynyl)-1-isopropyl-1H-imidazol-2-yl)methyl)piperidin-3-ol] | 75.5 | 393 | – | –
CCN1CCN(Cc2ccc(Nc3cc(C#Cc4cnc(C(C)(C)O)n4C(C)C)c(Cl)cn3)nc2)CC1 [Example 77, 2-(5-((5-chloro-2-((5-((4-ethylpiperazin-1-yl)methyl)pyridin-2-yl)amino)pyridin-4-yl)ethynyl)-1-isopropyl-1H-imidazol-2-yl)propan-2-ol] | 1.62 | 5.94 | – | –
CC(C)n1c(C#Cc2nc(Nc3ccc(N4CC5(CN(CC(F)(F)F)C5)C4)cn3)ncc2Cl)cnc1CN1CCC[C@H](O)C1 [Example 113, (S)-1-((5-((5-chloro-2-((5-(6-(2,2,2-trifluoroethyl)-2,6-diazaspiro[3.3]heptan-2-yl)pyridin-2-yl)amino)pyrimidin-4-yl)ethynyl)-1-isopropyl-1H-imidazol-2-yl)methyl)piperidin-3-ol] | 5.95 | 45.6 | – | –
CCN1CCC(c2ccc(Nc3ncc(Cl)c(C#Cc4cnc(C(C)(C)O)n4C(C)C)n3)nc2)CC1 [Example 76, 2-(5-((5-chloro-2-((5-(1-ethylpiperidin-4-yl)pyridin-2-yl)amino)pyrimidin-4-yl)ethynyl)-1-isopropyl-1H-imidazol-2-yl)propan-2-ol] | 2.9 | 6.53 | – | –
CC(C)n1c(C#Cc2nc(Nc3ccc(N4CCN(C)CC4=O)cn3)ncc2Cl)cnc1C(C)(C)O [Example 94, 1-(6-((5-chloro-4-((2-(2-hydroxypropan-2-yl)-1-isopropyl-1H-imidazol-5-yl)ethynyl)pyrimidin-2-yl)amino)pyridin-3-yl)-4-methylpiperazin-2-one] | 5.53 | 17.6 | – | –
CC(=O)N[C@@H]1COCC[C@H]1Nc1ncc(Cl)c(C#Cc2cnc(C(C)(C)O)n2C(C)C)n1 [Example 87, N-((3 S,4R)-4-((5-chloro-4-((2-(2-hydroxypropan-2-yl)-1-isopropyl-1H-imidazol-5-yl)ethynyl)pyrimidin-2-yl)amino)tetrahydro-2H-pyran-3-yl)acetamide] | 3970 | 9360 | – | –
CC(C)(C)n1cncc1C#Cc1nc(N[C@@H]2CCOC[C@H]2O)ncc1Cl [Example 136, (3S,4R)-4-((4-((1-(tert-butyl)-1H-imidazol-5-yl)ethynyl)-5-chloropyrimidin-2-yl)amino)tetrahydro-2H-pyran-3-ol] | – | – | 10.3 | 39.3
CC(C)n1c(C#Cc2nc(N[C@@H]3CCOC[C@H]3O)ncc2Cl)cnc1C(=O)N1CCC[C@H](O)C1 [Example 117, (5-((5-chloro-2-(((3 S,4R)-3-hydroxytetrahydro-2H-pyran-4-yl)amino)pyrimidin-4-yl)ethynyl)-1-isopropyl-1H-imidazol-2-yl)((S)-3-hydroxypiperidin-1-yl)methanone] | 615 | 5550 | – | –
CC1CCN(C)c2ncc(C#Cc3nc(N[C@@H]4CCOC[C@H]4O)ncc3Cl)n21 (stereo partly drawn) [Example 135, (3 S,4R)-4-((5-chloro-4-((5,8-dimethyl-5,6,7,8-tetrahydroimidazo[1,2-a]pyrimidin-3-yl)ethynyl)pyrimidin-2-yl)amino)tetrahydro-2H-pyran-3-ol] | 177 | 275 | – | –

Further compounds by falling IC50 [1, 3], results first:

IC50 [1, 3] [nM] | IC50 [2, 3] [nM] | IC50 ([1]; unmarked data: 80 µM ATP in Step 1) [nM] | IC50 ([2]; unmarked data: 100 µM ATP in Step 1) [nM] | SMILES
182 | 1160 | – | – | CC(C)n1c(C#Cc2nc(N[C@@H]3CCOC[C@H]3O)ncc2Cl)cnc1[C@H](C)N1CCC[C@H](O)C1 [Example 124, (S)-1-((S)-1-(5-((5-chloro-2-(((3 S,4R)-3-hydroxytetrahydro-2H-pyran-4-yl)amino)pyrimidin-4-yl)ethynyl)-1-isopropyl-1H-imidazol-2-yl)ethyl)piperidin-3-ol]
137 | 455 | – | – | Cn1ncc(C#Cc2nc(N[C@@H]3CCOC[C@H]3O)ncc2Cl)c1C(C)(C)C [Example 127, (3 S,4R)-4-((4-((5-(tert-butyl)-1-methyl-1H-pyrazol-4-yl)ethynyl)-5-chloropyrimidin-2-yl)amino)tetrahydro-2H-pyran-3-ol]
93.7 | 243 | – | – | CC1CCOc2ncc(C#Cc3nc(N[C@@H]4CCOC[C@H]4O)ncc3Cl)n21 (stereo partly drawn) [Example 132, (3 S,4R)-4-((5-chloro-4-((5-methyl-6,7-dihydro-5H-imidazo[2,1-o][1,3]oxazin-3-yl)ethynyl)pyrimidin-2-yl)amino)tetrahydro-2H-pyran-3-ol]
36.1 | 451 | – | – | CC(C)n1c(C#Cc2nc(N[C@@H]3CCOC[C@H]3O)ncc2Cl)cnc1CN1CCCC(C)(O)C1 (stereo partly drawn) [Example 110, 1-((5-((5-chloro-2-(((3 S,4R)-3-hydroxytetrahydro-2H-pyran-4-yl)amino)pyrimidin-4-yl)ethynyl)-1-isopropyl-1H-imidazol-2-yl)methyl)-3-methylpiperidin-3-ol]
33.3 | 280 | – | – | CC(=O)N1CCN(Cc2ccc(Nc3ncc(Cl)c(C#Cc4cnc(CN5CCC[C@H](O)C5)n4C(C)C)n3)nc2)CC1 [Example 106, (S)-1-(4-((6-((5-chloro-4-((2-((3-hydroxypiperidin-1-yl)methyl)-1-isopropyl-1H-imidazol-5-yl)ethynyl)pyrimidin-2-yl)amino)pyridin-3-yl)methyl)piperazin-1-yl)ethan-1-one]
23.2 | 684 | – | – | CC(C)n1c(C#Cc2nc(N[C@@H]3CCOC[C@H]3O)ncc2Cl)cnc1CC1(N)CCCC1 [Example 131, (3S,4R)-4-((4-((2-((1-aminocyclopentyl)methyl)-1-isopropyl-1H-imidazol-5-yl)ethynyl)-5-chloropyrimidin-2-yl)amino)tetrahydro-2H-pyran-3-ol]
16.2 | 44.9 | – | – | CC(=O)N1CC2(C1)CN(c1ccc(Nc3ncc(F)c(C#Cc4cnn(C)c4C(C)C)n3)nc1)C2 [Example 89, 1-(6-(6-((5-fluoro-4-((5-isopropyl-1-methyl-1H-pyrazol-4-yl)ethynyl)pyrimidin-2-yl)amino)pyridin-3-yl)-2,6-diazaspiro[3.3]heptan-2-yl)ethan-1-one]
15.1 | 131 | – | – | CCN1CCN(Cc2ccc(Nc3ncc(F)c(C#Cc4cnn(C)c4C(C)C)n3)nc2)CC1 [Example 70, N-(5-((4-ethylpiperazin-1-yl)methyl)pyridin-2-yl)-5-fluoro-4-((5-isopropyl-1-methyl-1H-pyrazol-4-yl)ethynyl)pyrimidin-2-amine]
9.86 | 59.1 | – | – | CCN1CC2(C1)CN(c1ccc(Nc3ncc(F)c(C#Cc4cnc(C)n4C(C)C)n3)nc1)C2 [Example 81, N-(5-(6-ethyl-2,6-diazaspiro[3.3]heptan-2-yl)pyridin-2-yl)-5-fluoro-4-((1-isopropyl-2-methyl-1H-imidazol-5-yl)ethynyl)pyrimidin-2-amine]
7.28 | 33.7 | – | – | CC(C)c1c(C#Cc2nc(Nc3ccc(N4CC5(CN(C)C5)C4)cn3)ncc2F)cnn1C [Example 93, 5-fluoro-4-((5-isopropyl-1-methyl-1H-pyrazol-4-yl)ethynyl)-N-(5-(6-methyl-2,6-diazaspiro[3 .3]heptan-2-yl)pyridin-2-yl)pyrimidin-2-amine]
6.69 | 25.9 | – | – | CC(C)n1c(C#Cc2nc(Nc3ccc(C(=O)N(C)C)cn3)ncc2Cl)cnc1C(C)(C)O [Example 100, 6-((5-chloro-4-((2-(2-hydroxypropan-2-yl)-1-isopropyl-1H-imidazol-5-yl)ethynyl)pyrimidin-2-yl)amino)-N,N-dimethylnicotinamide]
1.35 | 10.3 | – | – | CC(C)c1c(C#Cc2nc(N[C@@H]3CCN(S(C)(=O)=O)C[C@H]3O)ncc2Cl)cnn1C [Example 33, (3R,4R)-4-((5-chloro-4-((5-isopropyl-1-methyl-1H-pyrazol-4-yl)ethynyl)pyrimidin-2-yl)amino)-1-(methanesulfonyl)piperidin-3-ol]
